From patent US4235923A, “Esters of 3-substituted-2-(aminocarbonyl)oxiranecarboxylic acids as lipogenesis inhibitors” (Shell Oil Company, priority 1979, dated 1980)

The molecules below were run on lipogenesis in swine adipose tissue (assay: inhibition of lipogenesis (incorporation of radioactive glucose carbon into lipid) in slices of swine adipose tissue). Conditions: 100 micrograms per milliliter, 37° C., 2 hours, glucose-U^14 C, insulin, 5% DMSO, triplicate.
Type: cell-based
Excerpt: The manner in which they cause this effect is not known with certainty; it is believed that they interfere with the synthesis of fatty acids in the tissues. Their effectiveness for this purpose has been ascertained by immersing samples of swine adipose tissue in a liquid medium containing radioactive glucose and the test chemical, for a period of time, then isolating the lipid from the treated tissue and determining the incorporation of the radioactive carbon into lipid by means of scintillation counting techniques. These tests were conducted in swine adipose tissue because in swine, the primary site of lipogensis--i.e., fatty acid synthesis--appears to be adipose tissue.
Described in more detail, the tests were conducted according to the following general procedure:
150 milligrams of slices of swine adipose tissue were incubated at 37° C. for 2 hours with shaking in 3 milliliters of Krebs-Ringer bicarbonate solution containing one-half the normal calcium ion concentration, 60 micromoles of glucose, 0.5 micro-Curie of glucose-U^14 C, and 300 microunits of insulin, and 5% dimethyl sulfoxide (DMSO). The test compounds were added as suspensions or solutions in DMSO and were present at a concentration of 100 micrograms per milliliter of the incubation mixture.
The incubation was terminated by addition of 0.25 milliliter of 1 N sulfuric acid. The resulting mixture was extracted with a total of 25 milliliters of chloroform: methanol (2:1 v/v). The extracts were washed according to Folch et al. (J. Biol. Chem., 226, 497-509, (1957)), air dried, and counted in a liquid scintillation counter with 15 milliliters of counting fluid (two parts toluene containing 0.4% w/v New England Nuclear Omnifluor: 1 part Triton X-100). The tests were conducted in triplicate and were accompanied by control tests in which all ingredients,proportions and conditions were the same except that no test compound was included. From the data obtained were calculated the percent inhibition of lipid synthesis by the test compound in each case. The data obtained from the tests are set out in Table 1, as the percent inhibition of lipogenesis compared to the results obtained in the control tests wherein only the test compound was omitted.

Row | Structure (SMILES) | Percent Inhibition (of lipogenesis compared to control) [%]
1 | CCCCCCC1OC1(C(N)=O)C(=O)OCC (stereo not drawn) [Compound 2, Ethyl 2-(aminocarbonyl)-3-hexyloxiranecarboxylate cis] | 83

Same assay, conditions: Sus scrofa, 2 h, 100 micrograms per milliliter, 37° C., glucose-U^14 C, insulin, 5% DMSO, triplicate, read-out: Percent Inhibition (of lipogenesis compared to control)

Row | Structure (SMILES) | inhibition at 100 µg/mL [%]
2 | CCOC(=O)C1(C(N)=O)OC1C(=O)c1ccccc1 (stereo not shown) [Compound 16, Ethyl 2-(aminocarbonyl)-3-benzoyloxiranecarboxylate] | 74
3 | CCOC(=O)C1(C(N)=O)OC1c1cccc([N+](=O)[O-])c1 (stereo not shown) [Compound 12] | 76
4 | CCOC(=O)C1(C(N)=O)OC1c1ccc(Cl)c(Cl)c1 (stereo not shown) [Compound 13] | 87
5 | CCOC(=O)C1(C(N)=O)OC1c1ccc([N+](=O)[O-])cc1 (stereo not shown) [Compound 15] | 37
6 | CCOC(=O)C1(C(N)=O)OC1c1ccc(C)cc1 (stereo not shown) [Compound 10] | 37
7 | CCOC(=O)C1(C(N)=O)OC1c1ccc(Cl)cc1 (stereo not shown) [Compound 9] | 65
8 | CC(C)OC(=O)C1(C(N)=O)OC1c1ccccc1 (stereo not shown) [Compound 7, 1-Methylethyl 2-(aminocarbonyl)-3-phenyloxiranecarboxylate] | 48
9 | CCOC(=O)C1(C(N)=O)OC1c1ccccc1 (stereo not shown) [Compound 5, Ethyl 2-(aminocarbonyl)-3-phenyloxiranecarboxylate] | 85
10 | CCOC(=O)C1(C(N)=O)OC1C (stereo not shown) [Compound 3, Ethyl 2-(aminocarbonyl)-3-methyloxiranecarboxylate] | 18
11 | CCCCCCC1OC1(C(N)=O)C(=O)OCC (stereo not drawn) [Compound 1, Ethyl 2-(aminocarbonyl)-3-hexyloxiranecarboxylate trans] | 88
12 | COC(=O)C1(C(N)=O)OC1c1ccccc1 (stereo not shown) [Compound 8, Methyl 2-(aminocarbonyl)-3-phenyloxiranecarboxylate] | 47
13 | CCOC(=O)C1(C(N)=O)OC1C1CCCCC1 (stereo not shown) [Compound 4, Ethyl 2-(Aminocarbonyl)-3-cyclohexyloxiranecarboxylate] | 75
14 | CCOC(=O)C1(C(N)=O)OC1c1ccc(OC)c(OC)c1 (stereo not shown) [Compound 11] | 33
15 | CCOC(=O)C1(C(=O)NC)OC1c1ccccc1 (stereo not shown) [Compound 6] | 27
16 | CCOC(=O)C1(C(N)=O)OC1c1ccc(OC)cc1 (stereo not shown) [Compound 14] | 55
